The structures appear in SMILES notation.

From US7064120B2, “Tricyclic pyridyl carboxamides and derivatives thereof tocolytic oxytocin receptor antagonists” (Wyeth, priority 2001, dated 2006) come the findings set out here.

For one test, the target named is T1, human vasopressin V2 receptor subtype (Homo sapiens, UniProt P30518).
T1 construct: host or cells: CHO cells, stably transfected (pZeoSV vector)
T1 sequence (P30518 whole entry): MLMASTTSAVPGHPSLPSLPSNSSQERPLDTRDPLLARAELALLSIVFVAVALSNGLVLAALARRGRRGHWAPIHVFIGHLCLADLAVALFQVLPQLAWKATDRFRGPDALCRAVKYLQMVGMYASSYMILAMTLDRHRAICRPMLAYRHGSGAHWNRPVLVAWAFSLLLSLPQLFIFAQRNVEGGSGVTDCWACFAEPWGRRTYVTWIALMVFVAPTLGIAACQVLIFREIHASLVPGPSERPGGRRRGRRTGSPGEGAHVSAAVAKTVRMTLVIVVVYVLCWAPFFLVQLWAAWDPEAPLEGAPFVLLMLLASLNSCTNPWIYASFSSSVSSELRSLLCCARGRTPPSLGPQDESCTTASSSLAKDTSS
Kind of test: Vasopressin binding in CHO cell membranes expressing human vasopressin V2 subtype receptors ([3H]arginine vasopressin radioligand binding). Particulars: 100 nM. The procedure, abridged:
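Membranes from CHO cells stably expressing human V2 receptor (25 to 50 μg protein/well) incubated 60 min at room temperature with [3H]arginine vasopressin in Tris-HCl pH 7.4 buffer with MgCl2, BSA and protease inhibitors. Filtration, scintillation counting; percent inhibition at one concentration or IC50 (nM).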
A word on the inhibition: it is the share of the control response that was lost under treatment. Low readings indicate a weak effect, high ones a strong effect. Regarding `CN(CCc1ccccn1)C(=O)c1ccc2n1Cc1ccccc1N(C(=O)c1ccc(-c3cccc4ccccc34)cc1Cl)C2` [Example 73, 10-[2-Chloro-4-(naphthalen-1-yl)benzoyl]-N-methyl-N-[2-(2-pyridinyl)ethyl]-10,11-dihydro-5H-pyrrolo[2,1-c][1,4]benzodiazepine-3-carboxamide], the inhibition at 0.1 µM amounted to 16%.

The molecule `COc1ccccc1-c1ccc(C(=O)N2Cc3ccc(C(=O)NCc4ccncc4)n3Cc3ccccc32)cc1` [Example 91, 10-[(2′-Methoxy-[1,1′-biphenyl]-4-yl)carbonyl]-N-(4-pyridinylmethyl)-10,11-dihydro-5H-pyrrolo[2,1-c][1,4]benzodiazepine-3-carboxamide] came in with an inhibition at 0.1 µM of 10%.

The molecule `Cc1ccccc1-c1ccc(C(=O)N2Cc3ccc(C(=O)N4CCN(c5ccccn5)CC4)n3Cc3ccccc32)cc1` [Example 79, {10-[(2′-Methyl-[1,1′-biphenyl]-4-yl)carbonyl]-10,11-dihydro-5H-pyrrolo[2,1-c][1,4]benzodiazepin-3-yl}[4-(2-pyridinyl)-1-piperazinyl]methanone] showed an inhibition at 0.1 µM of 10%.

`Cc1ccccc1-c1ccc(C(=O)N2Cc3ccc(C(=O)NCc4ccncc4)n3Cc3ccccc32)cc1` [Example 92, 10-[(2′-Methyl-[1,1′-biphenyl]-4-yl)carbonyl]-N-(4-pyridinylmethyl)-10,11-dihydro-5H-pyrrolo[2,1-c][1,4]benzodiazepine-3-carboxamide] returned an inhibition at 0.1 µM of 0%.

As for `COc1cc(C(=O)N2Cc3ccc(C(=O)N(C)CCc4ccccn4)n3Cc3ccccc32)ccc1-c1cccc2ccccc12` [Example 71, 10-[3-Methoxy-4-(naphthalen-1-yl)benzoyl]-N-methyl-N-[2-(2-pyridinyl)ethyl]-10,11-dihydro-5H-pyrrolo[2,1-c][1,4]benzodiazepine-3-carboxamide], 0.1 µM produced 24% inhibition.

`COc1ccccc1-c1ccc(C(=O)N2Cc3ccc(C(=O)NCc4ccncc4)n3Cc3ccccc32)cc1C` [Example 88, 10-[(2′-Methoxy-2-methyl-[1,1′-biphenyl]-4-yl)carbonyl]-N-(4-pyridinylmethyl)-10,11-dihydro-5H-pyrrolo[2,1-c][1,4]benzodiazepine-3-carboxamide]: testing at 0.1 µM gave an inhibition of 13%.

Regarding `COc1cc(-c2ccccc2C)c(Cl)cc1C(=O)N1Cc2ccc(C(=O)NCc3ccncc3)n2Cc2ccccc21` [Example 94, 10-[(6-Chloro-3-methoxy-2′-methyl-[1,1′-biphenyl]-4-yl)carbonyl]-N-(4-pyridinylmethyl)-10,11-dihydro-5H-pyrrolo[2,1-c][1,4]benzodiazepine-3-carboxamide], the inhibition at 0.1 µM stood at 5%.

In turn, `Cc1ccccc1-c1ccc(C(=O)N2Cc3ccc(C(=O)N(C)CCc4ccccn4)n3Cc3ccccc32)cc1` [Example 68, N-Methyl-10-[(2′-methyl-[1,1′-biphenyl]-4-yl)carbonyl]-N-[2-(2-pyridinyl)ethyl]-10,11-dihydro-5H-pyrrolo[2,1-c][1,4]benzodiazepine-3-carboxamide] had an inhibition at 0.1 µM of 13%.

On to `COc1ccccc1-c1ccc(C(=O)N2Cc3ccc(C(=O)N(C)Cc4cccnc4)n3Cc3ccccc32)cc1` [Example 104, 10-[(2′-Methoxy-[1,1′-biphenyl]-4-yl)carbonyl]-N-methyl-N-(3-pyridinylmethyl)-10,11-dihydro-5H-pyrrolo[2,1-c][1,4]benzodiazepine-3-carboxamide], for which testing at 0.1 µM gave an inhibition of 23%.

As to `COc1cccc(-c2ccc(C(=O)N3Cc4ccc(C(=O)N5CCN(c6ccccn6)CC5)n4Cc4ccccc43)cc2OC)c1` [Example 85, {10-[(2,3′-Dimethoxy-[1,1′-biphenyl]-4-yl)carbonyl]-10,11-dihydro-5H-pyrrolo[2,1-c][1,4]benzodiazepin-3-yl}[4-(2-pyridinyl)-1-piperazinyl]methanone], the inhibition at 0.1 µM turned out to be 5%.

Regarding `Cc1ccccc1-c1ccc(C(=O)N2Cc3ccc(C(=O)N4CCN(c5ccccn5)CC4)n3Cc3ccccc32)cc1C` [Example 76, {10-[(2,2′-Dimethyl-[1,1′-biphenyl]-4-yl)carbonyl]-10,11-dihydro-5H-pyrrolo[2,1-c][1,4]benzodiazepin-3-yl}[4-(2-pyridinyl)-1-piperazinyl]methanone], at 0.1 µM the inhibition was 21%.

The test is the same for the next values; noted with them: value in parentheses.
As a reminder, the IC50 is the concentration needed to halve the response being measured. Regarding `Cc1cc(C(=O)N2Cc3ccc(C(=O)N(C)Cc4ccc[n+]([O-])c4)n3Cc3ccccc32)ccc1-c1ccccc1C(F)(F)F` [Example 4, N-Methyl-10-{[2-methyl-2′-trifluoromethyl-[1,1′-biphenyl]-4-yl]carbonyl}-N-[(1-oxidopyridin-3-yl)methyl]-10,11-dihydro-5H-pyrrolo[2,1-c][1,4]benzodiazepine-3-carboxamide], the concentration for half-maximal inhibition (IC50) turned out to be 464 nM.

On to `COc1ccccc1-c1ccc(C(=O)N2Cc3ccc(C(=O)N(C)Cc4cccnc4)n3Cc3ccccc32)cc1OC` [Example 103, 10-[(2,2′-Dimethoxy-[1,1′-biphenyl]-4-yl)carbonyl]-N-methyl-N-(3-pyridinylmethyl)-10,11-dihydro-5H-pyrrolo[2,1-c][1,4]benzodiazepine-3-carboxamide], for which the IC50 worked out at 318 nM.
